# Active and inactive are the calls of the source.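 How the source made its calls: active means clearly stronger inhibition of the target decarboxylase than of the coupling enzymes tested in parallel without it; inactive means the rest.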
# Biological target: diphosphomevalonate decarboxylase (Streptococcus pneumoniae D39)
# Test: diphosphomevalonate decarboxylase inhibition dose curves – biochemical, PK/LDH-coupled NADH fluorescence, hexokinase coupling counter-screen, dose response (AID 550)
# Details: purified DPM-DC
SMILES,outcome,IC50
O=C(c1noc2c1CCCC2)N1CCCCC1,inactive,
CCc1ccc(S(=O)(=O)NCc2cn3ccsc3n2)s1,inactive,
O=C(NCc1cccnc1)c1ccc2c(=O)n(CCCN3CCCC3=O)c(=S)[nH]c2c1,inactive,
CC1Cc2nc(SCC(=O)Nc3ccc4c(c3)OCO4)n(CCc3ccccc3)c(=O)c2S1 (stereo not given),inactive,
O=C(CCc1nc(-c2ccccc2F)no1)NCCN1CCc2ccccc2C1,inactive,
CC1=C(C(=O)OCC2CCCO2)C(c2ccncc2)C2=C(CCCC2=O)N1 (stereo not given),,inactive
CC1CC(C)CN(CCCNC(=O)Cn2ncc3c(=O)oc4ccccc4c32)C1 (stereo not given),inactive,
CCc1ccc(NC(=O)c2cnc3scc(C)n3c2=O)cc1,inactive,
O=C(c1ccc(F)cc1)N1CCC(N2CCCCCC2)CC1,inactive,
CCOc1ccc(N(CC(=O)Nc2ccc(F)c(F)c2)S(=O)(=O)c2c(C)noc2C)cc1,inactive,
Cc1cc(=O)cc(C)[nH]1,inactive,
COc1ccc(C(=O)NCc2cn3c(C)csc3n2)cc1OC,inactive,
c1ccc(-c2nc3nonc3c3nc4ccccc4n23)cc1,inactive,
Cc1ccsc1C1C(C(=O)O)c2ccccc2C(=O)N1C (stereo not given),inactive,
CCOc1nc(-c2ccccc2)ccc1-c1noc(-c2ccc(OC)c(OC)c2)n1,inactive,
CCOc1ccccc1OCC(=O)Nc1ccc(N2CCCCC2)cc1,inactive,
COc1cc2c(cc1NC(=O)c1ccc3c(c1)OCO3)oc1ccccc12,inactive,
CN(C)Cc1nc2ccccc2c(=O)n1Cc1nc(-c2cc3ccccc3o2)cs1,inactive,
O=C(CSc1nnnn1Cc1ccccc1)NCCc1ccccc1,inactive,
CCOC(=O)c1c(Nc2nc(C)c(C(=O)NC)s2)sc(C)c1C,inactive,
CCCC(=O)Nc1ccc(N2CCN(C(=O)CCC)CC2)cc1,inactive,
Cc1c(C(=O)OCC(C)(C)CN(C)C)oc2ccccc12,inactive,
O=S(=O)(Nc1ccc(C(F)(F)F)cc1)c1cnc[nH]1,inactive,
CCOC(=O)c1c(C)n(OCc2ccccc2)c2ccc3c(no[n+]3[O-])c12,inactive,
CN(C)C(=O)Nc1cnc2ccccc2c1,inactive,
COc1ccc(N2CCN(CCNS(=O)(=O)c3cccc4nsnc34)CC2)cc1,inactive,
Cc1cccc(OCC(O)Cn2c(-n3nc(C)cc3C)nc3c2c(=O)[nH]c(=O)n3C)c1 (stereo not given),inactive,

SMILES,outcome,IC50
CC(C)(O)P(C)(=O)c1ccccc1 (stereo not given),inactive,
CCc1c(C)c(C#N)c2nc3ccccc3n2c1Nc1c(C)n(C)n(-c2ccccc2)c1=O,inactive,
Cc1cc(N2CCN(C(=O)c3ccco3)CC2)n2nc(-c3cccc(Cl)c3)cc2n1,inactive,
COc1cc(C2C(C#N)=C(C)NC3=C2C(=O)CC(C)(C)C3)cc(OC)c1O (stereo not given),inactive,
CCOC(=O)c1cncc(NC(=O)c2ccccc2)c1,inactive,
C=C(C)Cn1c(COc2ccccc2)nnc1SCC(=O)O,inactive,
COc1ccc(-c2cc(C(F)(F)F)nc(SCCC(=O)Nc3cc(C)on3)n2)cc1,inactive,
Cc1cc(C(=O)CSc2nnnn2-c2ccc(Cl)cc2)c(C)n1CC1CCCO1 (stereo not given),inactive,
Cc1cc(N2CCOCC2)c2c(N)c(Br)cc(C)c2n1,inactive,
COc1ccc(C(c2nnnn2CC2CCCO2)N2CCN(c3ccccc3)CC2)cc1 (stereo not given),inactive,
CSc1ncc(Cl)c(C(=O)Nc2nnc(SC)s2)n1,inactive,
CCc1ccc(CCC(=O)Nc2ccc(C)c(C)c2)o1,inactive,
CN(C)C(=O)N1CCC(C(=O)NCc2cccs2)CC1,inactive,
COc1ccccc1NC(=O)C1=C(C)NC2=C(C(=O)CCC2)C1c1ccc2c(c1)OCO2 (stereo not given),,76.3 µM
CCCCC(=O)Nc1ccc(C(N)=O)cc1,inactive,
CCCN1C(=O)C(NC(C)=O)c2cc(OC)ccc21 (stereo not given),inactive,
Cc1cc(=O)[nH]c2ccccc12,inactive,
CN(C)S(=O)(=O)c1cccc(C(=O)C2=C3SC=C(c4ccccc4)N3CC2)c1,inactive,
CN1CC(=O)NC1=NC(=O)C12CC3CC(CC(C3)C1)C2,inactive,
O=C(C1CCCCC1)N1CCC(c2nc3c(nnn3Cc3ccccc3Cl)c(=O)[nH]2)CC1,inactive,
N#C/C(=C\C1CC=CCC1)c1nc2ccccc2[nH]1 (stereo not given),inactive,
Cc1ccc2oc(=O)c3cnn(CC(=O)NC4CCN(Cc5ccccc5)CC4)c3c2c1,inactive,
O=C1CCC(C(=O)N(Cc2ccco2)C2(C(=O)NC3CCCC3)CCCCC2)N1 (stereo not given),inactive,
Cc1c(C(=O)NCc2ccc3c(c2)OCO3)sc2nc(-c3ccccc3)cn12,inactive,
Cc1cc(C)c(S(=O)(=O)NCc2cn3c(C)csc3n2)cc1C,inactive,
Cn1c(-c2ccc(N)cc2)nc2ccccc21,inactive,
O=C1CC(c2cccnc2)c2cc3c(cc2N1)OCO3 (stereo not given),inactive,

SMILES,outcome,IC50
Cc1c(C(=O)NC2CC2)oc2ccc(S(=O)(=O)N3CCCCCC3)cc12,inactive,
CCOC(=O)COc1ccc2nsnc2c1Cl,inactive,
COc1cccc(C(=O)OCn2nnc3ccccc3c2=O)c1,inactive,
O=C(O)CCn1nnc(-c2cccs2)n1,inactive,
CC(=O)c1cccc(NC(=O)Nc2cccnc2)c1,inactive,
Cc1c(NC(=O)C2CCN(S(=O)(=O)c3ccccc3)CC2)c(=O)n(-c2ccccc2)n1C,inactive,
Cc1ccc(S(=O)(=O)NCCN2CCOCC2)cc1C,inactive,
CCOc1ccc(N(CC(=O)NC2CCCC(C)C2C)S(=O)(=O)c2c(C)noc2C)cc1 (stereo not given),inactive,
O=c1[nH]c(-c2ccncc2)nc2ccccc12,inactive,
CCc1nnc(NC(=O)CSc2nnc(COc3ccccc3)n2Cc2ccccc2)s1,inactive,
COC(=O)CC1SC(=O)NC1=Nc1ccccc1 (stereo not given),inactive,
Cc1cc(N2CCN(C3CCCC3)CC2)n2nc(C)c(-c3ccccc3)c2n1,inactive,
COc1ccccc1CNc1ncnc2nc[nH]c12,inactive,
Cc1nc2oc3c(NCc4ccccn4)ncnc3c2c2c1COC(C)(C)C2,inactive,
O=c1c(-c2ccccc2)c(O)c2cccc3c2n1CCC3,inactive,
O/N=C1\CCC\C1=C/c1ccco1,inactive,
CC(O)COc1ccc(/C(=N/O)c2ccccc2)cc1 (stereo not given),inactive,
CCOC(=O)CSc1cc(=O)n(C)c2cc(Cl)ccc12,inactive,
OCCNc1ncnc2c1c(-c1ccccc1)c(-c1ccccc1)n2Cc1ccco1,inactive,
O=C(CSc1nnc2ccccn12)Nc1ccccc1C(=O)NC1CC1,inactive,
CCCCCn1c(SCC#N)nc2cc(C(=O)NCC3CCCO3)ccc2c1=O (stereo not given),inactive,
CC(C)(C)CC(=O)Nc1nnc(-c2cccs2)s1,inactive,
Cc1ccc(C2C3=C(CC(C)(C)CC3=O)N(CCN3CCOCC3)C3=C2C(=O)CC(C)(C)C3)cc1,inactive,
c1ccc(N2CCN(c3cnccn3)CC2)nc1,inactive,
Cn1c(SCC(=O)N2CCOCC2)nnc1-c1ccc(NC(=O)c2ccccc2F)cc1,inactive,
O=P1(NC2CCCC2)COc2ccccc2OC1,inactive,

# — PubChem BioAssay AID550 (SRMLSC, 2006)
